These are literature values, as cited in patent publication US20210022994A1, “SUSTAINED RELEASE TREPOSTINIL-COMPOUND MICROPARTICLE COMPOSITIONS” (Lupin Holdings, B.V., priority 2019, published 2021).

One may read the half-life as the time in which the quantity being followed falls by half.

For the series the following is noted: in human plasma.

On to `CCCCC[C@H](O)CC[C@@H]1[C@H]2Cc3cccc(OCC(=O)O)c3C[C@H]2C[C@H]1O` [treprostinil, (1R,2R,3aS,9aS)-[[2,3,3a,4,9,9a-hexahydro-2-hydroxy-1-[(3S)-3-hydroxyoctyl]-1Hbenz[f]inden-5-yl]oxy]acetic acid], for which the half-life was 2 to 4 h.
